Tests used:
[1] = biological target: T1, serotonine transporter (SERT) receptor (Homo sapiens, UniProt P31645); assay: Binding assay SERT (h), [3H]imipramine, CHO cells; details: read-out: SERT [%]
T1 construct: expressed in transfected cells; host or cells: CHO cells
How it was run: (§1)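 Detection relied on scintillation counting of bound ligand. Compounds at 1×10^−6 M were evaluated against specific binding, i.e. total binding corrected for the nonspecific fraction seen with excess unlabelled ligand.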

adrenergic α1 receptor = assay: Binding assay α1 (non-selective), [3H]prazosin, rat cerebral cortex; details: percent inhibition of control specific binding; compounds tested at 1×10^−6 M
How it was run: as §1

dopaminergic D3 receptor = dopaminergic D3 receptor (Homo sapiens, UniProt P35462); assay: Binding assay D3 (h), [3H]methyl-spiperone, CHO cells; design: expressed in transfected cells; host or cells: CHO cells; details: read-out: D3 [%]
dopaminergic D3 receptor, sequence (P35462 whole entry): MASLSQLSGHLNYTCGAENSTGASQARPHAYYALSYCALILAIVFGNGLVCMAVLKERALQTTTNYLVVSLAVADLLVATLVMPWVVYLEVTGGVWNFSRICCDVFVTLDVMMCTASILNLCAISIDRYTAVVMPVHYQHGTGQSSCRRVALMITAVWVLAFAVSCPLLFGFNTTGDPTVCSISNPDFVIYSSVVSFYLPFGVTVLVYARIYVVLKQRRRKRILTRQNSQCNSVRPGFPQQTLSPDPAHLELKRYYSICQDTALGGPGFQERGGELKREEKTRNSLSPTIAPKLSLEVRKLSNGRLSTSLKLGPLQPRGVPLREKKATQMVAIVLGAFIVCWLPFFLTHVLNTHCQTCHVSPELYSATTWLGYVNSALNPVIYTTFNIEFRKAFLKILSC
How it was run: as §1

[2] = biological target: serotoninergic 5-HT6 receptor (Homo sapiens, UniProt P50406); assay: Binding assay 5-HT6 (h), [3H]LSD, CHO cells; design: expressed in transfected cells; host or cells: CHO cells; details: read-out: 5-HT6
serotoninergic 5-HT6 receptor, sequence (P50406 whole entry): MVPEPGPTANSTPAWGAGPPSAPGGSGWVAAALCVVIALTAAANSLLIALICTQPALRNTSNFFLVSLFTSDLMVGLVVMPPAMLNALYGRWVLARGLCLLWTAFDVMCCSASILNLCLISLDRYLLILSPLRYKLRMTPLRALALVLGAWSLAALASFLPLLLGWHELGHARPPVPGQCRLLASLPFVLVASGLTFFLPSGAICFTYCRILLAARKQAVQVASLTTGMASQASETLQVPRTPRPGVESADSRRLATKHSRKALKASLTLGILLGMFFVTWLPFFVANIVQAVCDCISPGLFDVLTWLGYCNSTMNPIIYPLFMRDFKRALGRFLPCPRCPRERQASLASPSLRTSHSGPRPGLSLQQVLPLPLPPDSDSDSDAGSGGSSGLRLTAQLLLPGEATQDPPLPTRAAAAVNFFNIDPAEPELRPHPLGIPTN
How it was run: as §1

[3] = biological target: serotoninergic 5-HT7 receptor (Homo sapiens, UniProt P34969); assay: Binding assay 5-HT7 (h), [3H]LSD, CHO cells; design: expressed in transfected cells; host or cells: CHO cells; details: read-out: 5-HT7
serotoninergic 5-HT7 receptor, sequence (P34969 whole entry): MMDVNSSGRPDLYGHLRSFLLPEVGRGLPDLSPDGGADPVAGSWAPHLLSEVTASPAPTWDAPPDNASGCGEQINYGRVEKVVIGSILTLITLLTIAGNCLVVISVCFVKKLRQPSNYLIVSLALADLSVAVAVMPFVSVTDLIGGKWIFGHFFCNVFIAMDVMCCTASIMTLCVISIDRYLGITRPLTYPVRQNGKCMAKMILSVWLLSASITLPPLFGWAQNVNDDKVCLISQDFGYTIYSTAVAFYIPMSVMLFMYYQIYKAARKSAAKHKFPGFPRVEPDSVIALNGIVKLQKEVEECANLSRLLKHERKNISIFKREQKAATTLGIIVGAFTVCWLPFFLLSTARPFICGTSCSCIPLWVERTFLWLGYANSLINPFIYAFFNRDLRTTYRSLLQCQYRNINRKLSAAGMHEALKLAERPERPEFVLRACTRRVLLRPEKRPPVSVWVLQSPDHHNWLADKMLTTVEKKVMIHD
How it was run: as §1

dopaminergic D2 receptor = dopaminergic D2 receptor (Homo sapiens, UniProt P14416); assay: Binding assay D2S (h), [3H]methyl-spiperone, HEK-293 cells; design: expressed in transfected cells; host or cells: HEK-293 cells; details: read-out: D2 [%]
dopaminergic D2 receptor, sequence (P14416 1-414 isoform P14416-2): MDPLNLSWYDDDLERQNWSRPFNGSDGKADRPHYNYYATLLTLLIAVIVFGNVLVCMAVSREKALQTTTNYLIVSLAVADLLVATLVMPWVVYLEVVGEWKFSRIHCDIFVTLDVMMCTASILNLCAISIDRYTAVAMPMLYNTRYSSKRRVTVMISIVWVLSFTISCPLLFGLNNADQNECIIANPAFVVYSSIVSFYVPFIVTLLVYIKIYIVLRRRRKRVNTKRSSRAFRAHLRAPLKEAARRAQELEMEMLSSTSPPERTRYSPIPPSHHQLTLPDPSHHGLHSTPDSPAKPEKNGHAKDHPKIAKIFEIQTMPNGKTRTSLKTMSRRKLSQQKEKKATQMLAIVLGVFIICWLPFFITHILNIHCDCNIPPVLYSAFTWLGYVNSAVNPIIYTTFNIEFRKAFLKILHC
How it was run: as §1

[4] = biological target: T2, serotoninergic 5-HT1A receptor (Homo sapiens, UniProt P08908); assay: Binding assay 5-HT1A (h), [3H]8-OH-DPAT, HEK-293 cells; design: expressed in transfected cells; host or cells: HEK-293 cells; details: read-out: 5-HT1A
T2 sequence (P08908 1-422): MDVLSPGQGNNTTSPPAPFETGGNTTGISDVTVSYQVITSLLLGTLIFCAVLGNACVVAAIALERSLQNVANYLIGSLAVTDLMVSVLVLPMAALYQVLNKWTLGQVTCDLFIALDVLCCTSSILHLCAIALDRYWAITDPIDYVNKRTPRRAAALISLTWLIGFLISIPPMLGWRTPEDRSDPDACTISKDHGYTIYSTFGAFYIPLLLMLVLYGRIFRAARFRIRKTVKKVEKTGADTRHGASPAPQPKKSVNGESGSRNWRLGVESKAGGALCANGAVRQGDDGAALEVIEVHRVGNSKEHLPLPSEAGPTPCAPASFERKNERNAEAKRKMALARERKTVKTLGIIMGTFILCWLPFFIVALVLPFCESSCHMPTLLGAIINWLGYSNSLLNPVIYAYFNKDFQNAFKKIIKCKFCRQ
How it was run: as §1

[5] = biological target: serotoninergic 5-HT2A receptor (Homo sapiens, UniProt P28223); assay: Binding assay 5-HT2A (h), [3H]ketanserin, HEK-293 cells; design: expressed in transfected cells; host or cells: HEK-293 cells; details: read-out: 5-HT2A
serotoninergic 5-HT2A receptor, sequence (P28223 whole entry): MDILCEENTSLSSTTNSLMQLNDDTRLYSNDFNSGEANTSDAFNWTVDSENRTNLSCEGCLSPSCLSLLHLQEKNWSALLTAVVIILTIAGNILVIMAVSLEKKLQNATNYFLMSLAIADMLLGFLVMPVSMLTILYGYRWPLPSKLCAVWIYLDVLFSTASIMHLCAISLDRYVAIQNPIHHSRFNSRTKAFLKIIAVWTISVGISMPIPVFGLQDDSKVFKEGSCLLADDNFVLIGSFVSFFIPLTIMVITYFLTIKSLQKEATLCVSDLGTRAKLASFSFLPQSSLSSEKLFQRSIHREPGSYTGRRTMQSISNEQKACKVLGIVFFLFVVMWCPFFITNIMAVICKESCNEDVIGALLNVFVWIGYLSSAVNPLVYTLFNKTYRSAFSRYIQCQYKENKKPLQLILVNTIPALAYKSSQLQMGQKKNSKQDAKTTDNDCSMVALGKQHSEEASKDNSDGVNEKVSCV
How it was run: as §1

T1 sequence (P31645 whole entry): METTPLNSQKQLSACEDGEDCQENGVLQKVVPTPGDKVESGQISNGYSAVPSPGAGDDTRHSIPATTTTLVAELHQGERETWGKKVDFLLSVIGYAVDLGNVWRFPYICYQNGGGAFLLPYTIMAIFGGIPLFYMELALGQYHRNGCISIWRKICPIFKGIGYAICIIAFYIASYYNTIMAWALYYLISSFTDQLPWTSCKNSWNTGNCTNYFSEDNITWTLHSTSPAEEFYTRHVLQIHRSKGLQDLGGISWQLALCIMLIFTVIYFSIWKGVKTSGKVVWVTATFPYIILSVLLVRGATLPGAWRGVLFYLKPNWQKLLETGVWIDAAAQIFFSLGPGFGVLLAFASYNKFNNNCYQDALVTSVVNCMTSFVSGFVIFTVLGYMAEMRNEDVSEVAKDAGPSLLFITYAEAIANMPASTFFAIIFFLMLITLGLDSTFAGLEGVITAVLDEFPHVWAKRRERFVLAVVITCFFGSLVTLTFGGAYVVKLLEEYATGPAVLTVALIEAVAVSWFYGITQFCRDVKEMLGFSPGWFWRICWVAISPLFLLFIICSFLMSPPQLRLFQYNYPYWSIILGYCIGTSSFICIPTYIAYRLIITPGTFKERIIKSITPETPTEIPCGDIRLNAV

Row | SMILES | inhibition at 1 µM [1] | α1 [%] (adrenergic α1 receptor) | inhibition at 1 µM (dopaminergic D3 receptor) | inhibition at 1 µM [2] | inhibition at 1 µM [3] | inhibition at 1 µM (dopaminergic D2 receptor) | inhibition at 1 µM [4] | inhibition at 1 µM [5]
1 | O=S(=O)(NCCCCN1CCN(c2nsc3ccccc23)CC1)c1cccc(Br)c1 [Compound 230, N-[4-[4-(1,2-Benzothiazol-3-yl)piperazin-1-yl]butyl]-3-bromobenzenesulphonamide] | 13% | 98% | 87% | 85% | 101% | 105% | 85% | 87%
2 | COc1cccc(S(=O)(=O)NCCCCN2CCN(c3nsc4ccccc34)CC2)c1 [Compound 232, N-[4-[4-(1,2-Benzothiazol-3-yl)piperazin-1-yl]butyl]-3-methoxybenzenesulphonamide] | 13% | 94% | 89% | 76% | 89% | 92% | 89% | 100%
3 | CC(C)(C)c1ccc(S(=O)(=O)NCCCCN2CCN(c3nsc4ccccc34)CC2)cc1 [Compound 233, N-[4-[4-(1,2-Benzothiazol-3-yl)piperazin-1-yl]butyl]-4-tert-butyl-benzenesulphonamide] | 5% | 94% | 76% | 76% | 93% | 83% | 53% | 100%
4 | O=S(=O)(NCCCCN1CCN(c2nsc3ccccc23)CC1)c1ccc(C(F)(F)F)cc1 [Compound 234, N-[4-[4-(1,2-Benzothiazol-3-yl)piperazin-1-yl]butyl]-4-(trifluoromethyl)benzenesulphonamide] | 32% | 91% | 91% | 62% | 97% | 85% | 95% | 92%
5 | O=S(=O)(NCCCCN1CCN(c2nsc3ccccc23)CC1)c1cccc(C(F)(F)F)c1 [Compound 235, N-[4-[4-(1,2-Benzothiazol-3-yl)piperazin-1-yl]butyl]-3-(trifluoromethyl)benzenesulphonamide] | 8% | 95% | 87% | 82% | 93% | 103% | 86% | 80%
6 | O=S(=O)(NCCCCN1CCN(c2nsc3ccccc23)CC1)c1ccc(OC(F)(F)F)cc1 [Compound 236, N-[4-[4-(1,2-Benzothiazol-3-yl)piperazin-1-yl]butyl]-4-(trifluoromethoxy)benzenesulphonamide] | -15% | 92% | 85% | 67% | 91% | 99% | 76% | 89%
7 | O=S(=O)(NCCCCN1CCN(c2nsc3ccccc23)CC1)c1ccc(-c2ccccc2)cc1 [Compound 237, N-[4-[4-(1,2-Benzothiazol-3-yl)piperazin-1-yl]butyl]-4-phenylbenzenesulphonamide] | -7% | 87% | 85% | 89% | 64% | 62% | 51% | 24%
8 | O=S(=O)(NCCCCN1CCN(c2nsc3ccccc23)CC1)c1cccs1 [Compound 238, N-[4-[4-(1,2-Benzothiazol-3-yl)piperazin-1-yl]butyl]thiophene-2-sulphonamide] | 13% | 103% | 85% | 74% | 88% | 87% | 90% | 95%
9 | O=S(=O)(NCCCCN1CCN(c2nsc3ccccc23)CC1)c1ccc2c(c1)CCO2 [Compound 242, N-[4-[4-(1,2-Benzothiazol-3-yl)piperazin-1-yl]butyl]-2,3-dihydrobenzofuran-5-sulphonamide] | 12% | 98% | 89% | 73% | 101% | 105% | 92% | 94%
10 | O=S(=O)(NCCCCN1CCN(c2nsc3ccccc23)CC1)c1ccc2cn[nH]c2c1 [Compound 244, N-[4-[4-(1,2-Benzothiazol-3-yl)piperazin-1-yl]butyl]-1H-indazole-6-sulphonamide] | 19% | 98% | 91% | 81% | 98% | 105% | 69% | 96%
11 | O=S(=O)(NCCCCN1CCN(c2nsc3ccccc23)CC1)c1cnc2ccccn12 [Compound 246, N-[4-[4-(1,2-Benzothiazol-3-yl)piperazin-1-yl]butyl]imidazo[1,2-a]pyridine-3-sulphonamide] | 31% | 99% | 86% | 49% | 86% | 98% | 91% | 88%
12 | O=S(=O)(NCCCCN1CCN(c2nsc3ccccc23)CC1)c1c[nH]c2ncccc12 [Compound 247, N-[4-[4-(1,2-Benzothiazol-3-yl)piperazin-1-yl]butyl]-1H-pyrrolo[2,3-b]pyridine-3-sulphonamide] | 14% | 98% | 83% | 93% | 93% | 104% | 78% | 88%
13 | O=S(=O)(NCCCN1CCN(c2nsc3ccccc23)CC1)c1cccc(O)c1 [Compound 254, N-[3-[4-(1,2-Benzothiazol-3-yl)piperazin-1-yl]propyl]-3-hydroxybenzenesulphonamide] | 9% | 96% | 98% | 76% | 93% | 87% | 94% | 90%
14 | COc1cccc(S(=O)(=O)NCCCN2CCN(c3nsc4ccccc34)CC2)c1 [Compound 255, N-[3-[4-(1,2-Benzothiazol-3-yl)piperazin-1-yl]propyl]-3-methoxybenzenesulphonamide] | 29% | 92% | 82% | 68% | 91% | 98% | 93% | 84%
15 | O=S(=O)(NCCCN1CCN(c2nsc3ccccc23)CC1)c1ccc(OC(F)(F)F)cc1 [Compound 259, N-[3-[4-(1,2-Benzothiazol-3-yl)piperazin-1-yl]propyl]-4-(trifluoromethoxy)benzenesulphonamide] | 16% | 88% | 85% | 74% | 96% | 93% | 97% | 56%
